The EC50 is the concentration needed to bring the measured effect to its halfway point.

From PMC11365428 (The Journal of Biological Chemistry, 2024) come the findings set out here.

Assay type in all cases: cell-based
Assay [1] concerns the target T1, apTKRPR-A (Aplysia californica, UniProt A0AAU7SSZ1).
T1 sequence (A0AAU7SSZ1 1-398): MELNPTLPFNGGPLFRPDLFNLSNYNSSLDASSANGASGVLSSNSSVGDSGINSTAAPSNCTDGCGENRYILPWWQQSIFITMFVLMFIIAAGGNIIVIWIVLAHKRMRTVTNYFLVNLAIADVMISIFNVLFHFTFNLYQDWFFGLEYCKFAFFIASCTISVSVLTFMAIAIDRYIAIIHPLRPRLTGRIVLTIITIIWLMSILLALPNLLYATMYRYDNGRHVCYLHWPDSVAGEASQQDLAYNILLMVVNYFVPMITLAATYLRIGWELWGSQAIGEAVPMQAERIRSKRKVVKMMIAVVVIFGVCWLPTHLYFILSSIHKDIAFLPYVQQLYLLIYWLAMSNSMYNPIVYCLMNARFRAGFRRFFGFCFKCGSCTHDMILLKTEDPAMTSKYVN
As to the kind of experiment: IP1 accumulation assay, CHO-K1 cells transiently expressing apTKRPR-A. The procedure:
To express putative Aplysia receptors transiently in CHO-K1 cells, the cDNAs were subcloned into the pcDNA3.1(+) or pcDNA3.1(+)-FLAG (for ELISA experiments only, see “Cell surface expression analysis by ELISA” section) expression vector. On the day before transfection, the CHO-K1 cells were passaged into 60 mm diameter tissue culture–treated dishes, and the transfection experiments were performed when the cells were grown to 70 to 90% confluence. CHO-K1 cells were transfected with the cDNA plasmid constructs using Turbofect Transfection reagent (Thermo Fisher Scientific, R0531), following the manufacturer’s instructions. […] The DNA/TurboFect mixture dropwise was then added to the dish, and the cells were incubated at 37 °C in a humidified incubator containing 5% CO2 overnight.
On the third day, the activation of the putative receptors was detected by monitoring intracellular IP1 concentration using an IP-One Gq kit (Cisbio, 62IPAPEB) in Tecan Spark. Except for using 0.5x reagent, all other procedures were performed following the manufacturer’s instructions. IP1 accumulation assay measures the accumulation of IP1, which is hydrolyzed from the second messenger, and inositol triphosphate. Inositol triphosphate is generated by the Gαq pathway when a GPCR is activated by an appropriate ligand.

A further assay concerns the target T2, apTKRPR-B (Aplysia californica, UniProt A0AAU7STS1).
T2 sequence (A0AAU7STS1 1-447): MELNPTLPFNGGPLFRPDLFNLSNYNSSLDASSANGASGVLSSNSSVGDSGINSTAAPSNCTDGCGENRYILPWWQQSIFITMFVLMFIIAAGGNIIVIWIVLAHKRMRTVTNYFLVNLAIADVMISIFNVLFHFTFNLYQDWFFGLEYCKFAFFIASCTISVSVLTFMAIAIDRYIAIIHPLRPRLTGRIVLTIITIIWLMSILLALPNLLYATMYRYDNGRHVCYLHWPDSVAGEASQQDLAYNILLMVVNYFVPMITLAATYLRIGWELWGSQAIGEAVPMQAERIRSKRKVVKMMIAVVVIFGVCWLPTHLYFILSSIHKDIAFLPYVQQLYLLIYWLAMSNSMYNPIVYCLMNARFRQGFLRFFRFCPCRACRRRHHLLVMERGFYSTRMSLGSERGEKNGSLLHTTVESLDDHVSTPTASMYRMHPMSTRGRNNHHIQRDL
Description: Cell surface expression by ELISA after ligand exposure, FLAG-apTKRPR-B. The conditions noted are these: 10 µM, different durations, compared with 0 min, n = 4. The procedure:
(§1) Cell surface expression determination of apTKRPRs and mutant receptors, all with FLAG tags, was performed using a procedure modified from previous work ([64], [122], [123], [124]). Specifically, CHO-K1 cells were cultured in F-12K medium (Gibco, 21127-022) with 10% FBS (Genial, G11-70500) at 37 °C in a humidified incubator containing 5% CO2. When the cells were grown to 70 to 90% confluence, transfection experiments were performed (see “Cell culture and transfection” section). After 24 h, transfected cells were plated in 96-well white clear-bottom cell culture plates (Corning, 3610) at a density of 20,000 cells in 100 μl per well and incubated overnight. The following day, culture media was aspirated and cells were washed twice with 200 μl of 1× PBS (Procell, PB180327). Then, 100 μl of 1× PBS containing 5% (w/v) BSA was added to each well and incubated at room temperature. After 30 min, 100 μl of 1:10,000 anti-FLAG M2-horseradish peroxidase conjugate (Sigma-Aldrich, Cat A8592) was added to each well and incubated for 30 min at 37 °C. Cells were washed twice with 200 μl of 1× PBS and then incubated with 200 μl of TMB Chromogen Solution (Sangon Biotech, E661007) for 30 min at 37 °C in the dark. Finally, 50 μl of ELISA Stopping Solution (Sangon Biotech, E661006) was added to each well to stop the reaction. The absorbance at 450 nm was measured using a Tecan Spark microplate reader. […]
(An ELISA detects its analyte on a solid surface through an enzyme-linked reagent.)

For the next assay, the target named is apTKRPR-B T391 (Aplysia californica, UniProt A0AAU7STS1, DEL392-447). As to the kind of experiment: Cell surface expression by ELISA after ligand exposure, truncated apTKRPR-B T391. As to conditions: 10 µM, 60 min, n = 5. The procedure: as §1
Assay [2] addresses T1, apTKRPR-A. Description: Cell surface expression by ELISA after ligand exposure, FLAG-apTKRPR-A. The conditions noted are these: 10 µM, different durations, compared with 0 min, n = 4. The procedure: as §1

Non-standard residues stand in square brackets, D forms with d. Residues, ends and D or L forms follow the SMILES beside them. pGlu = O=C1CC[C@@H](C(=O)O)N1

Molecule `CC(C)C[C@H](NC(=O)[C@H](Cc1c[nH]cn1)NC(=O)[C@@H]1CCCN1C(=O)[C@@H]1CCC(=O)N1)C(=O)NCC(=O)N[C@@H](Cc1ccccc1)C(=O)N[C@@H](Cc1c[nH]cn1)C(=O)NCC(=O)N[C@@H](CO)C(=O)N[C@@H](CCCNC(=N)N)C(N)=O` [apTKRP-2b] ([pGlu]PHLGFHGSR-NH2) showed an EC50 at apTKRPR-A [1] of 37.2 nM. Further, on apTKRPR-A [1] (10^-5 M compared with 10^-10 M (control), n = 3, no Gαq cotransfection), the “IP1 response of apTKRPR-A in screening” value is “responded”. Further, the “cell surface receptor expression of apTKRPR-B after agonist exposure” value on apTKRPR-B is on record as “significant loss of receptor expression”. Besides, the “cell surface receptor expression of T391 after agonist exposure” value at apTKRPR-B T391 is “did not change significantly”. Besides, on apTKRPR-A [2], the “cell surface receptor expression of apTKRPR-A after agonist exposure” value is “significant loss of receptor expression”.
